Reference: patent US20030069194A1, “Inhibition of viral replication by targeting RNA-DNA complexes” (priority 2001, published 2003)
Structures can show the parent of a compound that is named as a salt.

Legend:
[1] = test system: 18C-18R duplex (RNase H substrate of HIV-1 RT); test: RT-induced RNase H cleavage of the 18C-18R duplex (gel assay); format: biochemical; conditions: 18C-18R duplex; aminoglycosides 312.5 μM; FIG. 1b, 1d
Description: The first model oligonucleotide was a 18mer chimeric duplex (18C-18R). 18C-18R mimics a RNase H substrate during minus-strand strong-stop synthesis. (FIG. 1a). Mueller, U. et al. Crystal structure of an eight-base pair duplex containing the 3′-DNA RNA-5′ junction formed during initiation of minus-strand synthesis of HIV replication, Biochemistry 37,12005-12011 (1998). […] Note that RT cleaves the RNA strand (18R) opposite the chimeric RNA-DNA strand (18C) at three sites (FIGS. 1a, b). The primary cleavage site lies between base positions +1 and +2 (counting from the RNA-DNA junction in the 5′ direction on the cleaved RNA strand). Two other minor cleavage sites lie between positions +3 and +4 and between positions −1 and +1, with the former site being cleaved to a greater extent than the latter site. Götte, M. et al., HIV-1 Reverse transcriptase-associated RNase H cleaves RNA/RNA in arrested complexes: Implications for the mechanism by which RNase H discriminates between RNA/RNA and RNA/DNA, EMBO J. 14, 833-841 (1995).
(§1) Recombinant HIV-1 RT p66 was isolated from Escherichia coli JM 109. Pandey, V. N. et al, Role of methionine 184 of human immunodeficiency virus type-1 reverse transcriptase in the polymerase function and fidelity of DNA synthesis, Biochemistry 35, 2168-2179 (1996). The 18C and 18R oligonucleotides were purchased from Dharmacon Research, Inc. (Lafayette, Colo.). The 18D oligonucleotide was obtained from Integrated DNA Technologies, Inc. (Coralville, Iowa). Neomycin trisulfate trihydrate, the free base of tobramycin, paromomycin sulfate, and kanamycin B sulfate were obtained from Fluka, while kanamycin A monosulfate and ribostamycin sulfate dihydrate were obtained from Sigma.
(§2) The RNase H activity of RT was assayed in a 10 μl reaction mixture containing 10 mM PIPES (pH 6.0) and 5 mM MgCl2. Ten pmol of either 18C or 18R were ^32P-labeled at the 5′ end using T4 polynucleotide kinase. For the cleavage experiments, different aminoglycosides were mixed with 0.5 μM of target duplex. A small amount of RT, 0.1 μg, was then added to initiate the cleavage reaction. After incubation at 37° C. for 30 min, the reaction was stopped by addition of 3 M urea containing a mixture of bromophenol blue and xylene cyanol. Denaturation of the 18C-18R duplex required the addition of 5 M urea as well as heating at 95° C. for 5 min prior to gel loading. The cleavage products were resolved in a 10% polyacrylamide gel containing 8 M urea. The gels were subsequently analyzed using a phosphoimager (Molecular Dynamics, Inc.).

[2] = test system: 18C-18D duplex (RNase H substrate of HIV-1 RT); test: RT-induced RNase H cleavage of the 18C-18D duplex (gel assay); format: biochemical; conditions: 18C-18D duplex; aminoglycosides 2.0 mM; FIG. 2b, 2c
Description: The second model oligonucleotide was a 18mer chimeric duplex (18C-18D). 18C-18D mimics a RNase H substrate during plus-strand strong-stop synthesis (FIG. 2a), which occurs following minus-strand DNA synthesis. Fedoroff, O. Y., et. al., B. R. Structural variation among retroviral primer-DNA junctions: Solution structure of the HIV-1 (−)-strand Okazaki fragment r(gcca)d(CTGC)-d(GCAGTGGC), Biochemistry 35,11070-11080 (1996). For the 18C-18D duplex, RT cleaves the RNA portion of the chimeric strand (18C) opposite the DNA strand (18D) at only a single site (FIGS. 2a, b), in marked contrast to the three cleavage sites observed in the 18C-18Rduplex. This unique cleavage site lies between base positions +1 and +2 (counting from the RNA-DNA junction in the 5′ direction on the cleaved chimeric strand). Furfine, E. S. & Reardon, J. E., Human immunodeficiency virus reverse transcriptase ribonuclease H: Specificity of tRNA(Lys3)-primer excision, Biochemistry 30, 7041-7046 (1991); Smith, J. S. & Roth, M. J. Specificity of human immunodeficiency virus-1 reverse transcriptase-associated ribonuclease H in removal of the minus-strand primer tRNA(Lys3), J. Biol. Chem. 267, 15071-15079 (1992). […] As noted above for the 18C-18R duplex, this hierarchy of cleavage inhibition correlates with the relative binding affinities of the three ligands for the 18C-18D duplex.
as §1
as §2, with “containing 110” for “containing 10”
To determine the nature of the aminoglycoside-induced inhibition of RT-catalyzed RNase H cleavage, the impact of RT concentration on neomycin-induced inhibition was examined. […] In the presence of 1 mM neomycin, increasing the concentrations of RT overcomes the RNase H inhibitory effect of the drug.

| SMILES | hierarchy of the extent of inhibition of RT-induced cleavage [1] | hierarchy of inhibition of RT-induced cleavage [2] |
| --- | --- | --- |
| NC[C@H]1O[C@H](O[C@H]2[C@H](O)[C@@H](O[C@H]3O[C@H](CO)[C@@H](O)[C@H](N)[C@H]3O)[C@H](N)C[C@@H]2N)[C@H](O)[C@@H](O)[C@@H]1O.O=S(=O)(O)O [kanamycin A, kanamycin A monosulfate] | neomycin>paromomycin>tobramycin>kanamycin B>ribostamycin>>kanamycin A |  |
| NC[C@H]1O[C@H](O[C@H]2[C@H](O)[C@@H](O[C@H]3O[C@H](CO)[C@@H](O)[C@H](N)[C@H]3O)[C@H](N)C[C@@H]2N)[C@H](N)[C@@H](O)[C@@H]1O.O=S(=O)(O)O [kanamycin B, kanamycin B sulfate] | neomycin>paromomycin>tobramycin>kanamycin B>ribostamycin>>kanamycin A |  |
| NC[C@H]1O[C@H](O[C@H]2[C@H](O[C@@H]3O[C@H](CO)[C@@H](O)[C@H]3O)[C@@H](O)[C@H](N)C[C@@H]2N)[C@H](N)[C@@H](O)[C@@H]1O [ribostamycin, ribostamycin sulfate dihydrate] | neomycin>paromomycin>tobramycin>kanamycin B>ribostamycin>>kanamycin A | neomycin>paromomycin>ribostamycin |
| NC[C@H]1O[C@H](O[C@H]2[C@H](O)[C@@H](O[C@H]3O[C@H](CO)[C@@H](O)[C@H](N)[C@H]3O)[C@H](N)C[C@@H]2N)[C@H](N)C[C@@H]1O [tobramycin] | neomycin>paromomycin>tobramycin>kanamycin B>ribostamycin>>kanamycin A |  |
